Laboratory results from patent US20090297438A1, “Human Monoclonal Antibodies to Prostate Specific Membrane Antigen (PSMA)” (priority 2005, published 2009).

Test system: LNCaP human prostate carcinoma xenografts
Experiment: LNCaP tumor xenografts treated with Taxotere and 7F12 antibody
Type: in vivo, male CB17.SCID mice
Conditions: Taxotere alone, 2 and 4 mg/kg iv
Method: The anti-tumor efficacy of the anti-PSMA 7F12 antibody in combination with Taxotere® (docetaxel) was tested on LNCaP human prostate carcinoma xenografts grown in male CB17.SCID mice.
LNCaP prostate cancer cells expressing high levels of PSMA were obtained from ATCC (Cat# CRL-1740) and expanded in vitro following ATCC instruction. 8 week-old male CB17.SCID mice from Taconic were implanted subcutaneously in the right flank with 2.5×10^6 LNCaP cells in 0.2 ml of PBS/Matrigel (1:1) per mouse. Mice were weighed and measured for tumor volume using an electronic caliper twice weekly starting three weeks post implantation. Tumor volumes were calculated as height×width×length. Mice with vascularized tumors (determined by the appearance of the tumors) of 180 mm^3 were randomized into treatment group and were dosed per individual body weight on Day 0. Mice were monitored for tumor growth around 60 days post dosing and terminated at the end of the study. Mice were euthanized when the tumors reached tumor end point (1500 mm^3). Taxotere® was dosed at Q3Dx3 intravenously (iv) through the tail vein. Isotype control antibody Rituxan® and the anti-PSMA 7F12 antibody were dosed intraperitoneally (ip) Q3Dx5, followed with Q7Dx6.

## CC(=O)O[C@@]12CO[C@@H]1C[C@H](O)[C@@]1(C)C(=O)[C@H](O)C3=C(C)[C@@H](OC(=O)[C@H](O)[C@@H](NC(=O)OC(C)(C)C)c4ccccc4)C[C@@](O)([C@@H](OC(=O)c4ccccc4)[C@H]21)C3(C)C [Taxotere®, docetaxel]
  anti-tumor growth efficacy: dose-dependent anti-tumor growth efficacy
